{"source": "patent US20180305292A1", "about": "“DERIVATIVES OF NONSTEROIDAL ANTI-INFLAMMATORY DRUGS” (priority 2015, published 2018)", "assay": "Metabolic stability in minipig intestinal fluid, quantification of released licofelone by HPLC/UV", "format": "in vitro ADME, Gottingen SPF minipig", "conditions": "incubation in diluted minipig intestinal fluid", "procedure": "a) Preparation and Storage of Minipig Intestinal Fluid (IF)\nIntestinal tissue/fluid and enterocyte samples were taken from a 10 month old, female Gottingen SPF minipig. The body weight was 21 kg. The minipig was fasted for approximately 28 hours before sampling of intestinal fluid/tissues and enterocytes. On the day of sampling, the minipig was weighed and anaesthetised. The animal was killed by exsanguination before sampling of intestinal fluid. An intestinal segment was ligated at both ends before removal. The isolated tissue was placed in isotonic saline and opened by a longitudinal cut for sampling of intestinal fluid.\nThe intestinal tissue from each segment was transferred into a Centrifuge Tube, immersed in 10 ml 50 mM phosphate buffer, pH 6.8 and frozen at −70° C.\nb) Incubation Experiments with Minipig Intestinal Fluid (without FaSSIF) […]\nc) Quantification of Licofelone by HPLC/UV\nA set of six reference solutions (solvent: 1 vol IF and 4 vol 2% bovine serum albumin in FaSSIF pH 6.5) with licofelone concentrations between 38.0 and 0.19 μg/ml and the solvent without licofelone were analyzed in duplicate. The obtained concentration/peak area data pairs were subjected to linear regression analysis and the resulting calibration curve (r^2=0.9999) was used for quantification of licofelone in incubation experiments."}
{"smiles": "COC(=O)/C=C/C(=O)OCCOCCOCCOCCOC(=O)Cc1c(-c2ccc(Cl)cc2)c(-c2ccccc2)c2n1CC(C)(C)C2", "note": "[Example 8, (E)-But-2-enedioic acid 2-{2-[2-(2-{2-[2-(4-chloro-phenyl)-6,6-dimethyl-1-phenyl-6,7-dihydro-5H-pyrrolizin-3-yl]-acetoxy}-ethoxy)-ethoxy]-ethoxy}-ethyl ester methyl ester]", "values": [{"measurement": "Cleavage of the ester bond, release of licofelone and monomethylfumarate", "result": "unexpected smooth cleavage of the ester bond"}]}
